Data on one compound can be found in paper PMC5786306, “An AKAP-Lbc-RhoA interaction inhibitor promotes the translocation of aquaporin-2 to the plasma membrane of renal collecting duct principal cells” (PLoS ONE, 2018).

Type in all cases: cell-based, rat
Experiment [1] has as its system AQP2 localization and F-actin in primary IMCD cells. The experiment in a line: Immunofluorescence microscopy of AQP2 and F-actin in primary IMCD cells. The text has this: Primary rat renal inner medullary collecting duct (IMCD) cells were obtained and cultured as previously described. AQP2 was detected with specific rabbit (H27 antibody) and secondary Cy3-coupled antibodies, and F-actin was visualized with Alexa Fluor 647-Phalloidin by laser scanning microscopy (LSM780; Zeiss Jena, Germany) as described.
Fig 8 Scaff10-8 promotes the redistribution of AQP2 to the plasma membrane of primary IMCD cells, which is independent of cAMP elevation and associated with depolymerization of F-actin. (A) Upper panel. IMCD cells were treated with DMSO (1%; control), the solvent of Scaff10-8, or forskolin (10 μM, 30 min) to stimulate cAMP synthesis. Lower panels: The cells were treated for 1 hour with Scaff10-8 (30 μM) alone (control) or with Scaff10-8 and forskolin. Forskolin (10 μM) was added for the final 30 min of Scaff10-8 incubation. AQP2 (green) was detected with specific primary and Cy3-coupled secondary antibodies, F-actin (red) with Alexa Fluor 647-Phalloidin and nuclei with DAPI (blue). Signals were visualized using a laser scanning microscope. Representative images are shown. n = 3. The magnified views were derived from the indicated boxes. (B) The signal intensities arising from intracellular and plasma membrane AQP2 were recorded, related to nuclear signal intensities, and the ratios of plasma membrane to intracellular fluorescence signal intensities were calculated (n = 30 cells per condition). Ratios > 1 indicate a predominant localization of AQP2 at the plasma membrane. Statistically significant differences were calculated using one-way ANOVA with posthoc Bonferroni. Mean ± SEM; *, p ≤ 0.05; *** p ≤ 0.001.

For experiment [2], the system named is AQP2 insertion into the plasma membrane of IMCD cells. The experiment in a line: Biotinylation of cell surface proteins. As to conditions: Scaff10-8 30 μM, 1 or 24 h, forskolin 30 μM, 30 min. How it is done:
The assay was performed according to Bogum et al.. IMCD cells were treated with Scaff10-8 at a concentration of 30 μM for 1 or 24 h (0.3% DMSO final concentration). DMSO (0.3%) was used as a control for the 24 h of incubation. Cells were stimulated with forskolin (30 min, 30 μM). Cells were washed twice with ice-cold PBS and incubated with biotinylation buffer (500 μg Biotin per well; 10 mM triethanolamine; 150 mM NaCl; 1 mM MgCl2; 0.1 mM CaCl2; pH 8.0) for 60 min at 4°C. After two washing steps with biotinylation buffer, cells were incubated for 10 min with quenching buffer (50 mM NH4Cl in PBS) at 4°C. Lysates were prepared using biotinylation lysis buffer 1 (SLB; 0.5% Triton X-100; 0.2% BSA; Complete mini EDTA-free). Lysates were sonicated and incubated for 20 min at 37°C. Cell debris was removed by centrifugation (30 min, 15,000x g, 4°C). Lysates were incubated with 80 μl streptavidin agarose beads at 4°C overnight. Beads were washed three times with biotinylation lysis buffer 1 and 2 (SLB; 0.5% Triton X-100; Complete mini EDTA-free). Proteins were eluted using sample buffer and analyzed by Western blotting.
(A) IMCD cells were treated with either compound (30 μM) or DMSO for 1 or 24 h. Membrane proteins were biotinylated followed by precipitation with streptavidin agarose beads. […] (B) Signals from A were quantified by densitometric analysis. […]

Experiment [3] has as its system RhoA activity in IMCD cells. The experiment in a line: Rhotekin pull down of active RhoA in IMCD cells. As to conditions: 30 μM. As to the method:
Western blotting for the detection of RhoA and Hsp90 and a Rhotekin pull down for the detection of active, GTP-bound RhoA were adapted from a procedure previously described by us. In brief, IMCD cells were cultured as described, DBcAMP and nystatin were removed on day twelve after seeding by exchange of medium for medium without the compounds. On the following day, Scaff10-8 was added to a final concentration of 30 μM or, as a control, the solvent DMSO (0.3%) for 1 h. Then cells were treated with forskolin (30 μM) for an additional 30 min, and subsequently incubated at 4°C in ice-cold Rhotekin buffer (50 mM Tris, pH 7.2; 1% (w/v) Triton X-100; 0.5% sodium deoxycholate; 500 mM NaCl; 10 mm MgCl2; PhosSTOP EASY (PhosSTOP EASY pack, Roche Diagnostics, Mannheim, DE; #REF04906837001), Complete mini EDTA-free (Complete mini EDTA-free, Roche Diagnostics, Mannheim, DE; #REF0693159001), for 10 min and lysed. Lysates (300–400 μg protein) were incubated with 300 μl of Rhotekin beads as previously described Proteins were eluted from beads with Laemmli buffer and analyzed by Western blotting. […]
Fig 10 Scaff10-8 inhibits activation of RhoA in primary IMCD cells. […] Signals were semiquantitatively analyzed by densitometry. […] Statistically significant differences were determined using one-way ANOVA with posthoc Bonferroni. […]

Each structure is given as a SMILES string.

Take `COc1ccc(-c2coc3cc4oc(=O)c(CCC(=O)O)c(C)c4cc23)cc1` [Scaff10-8, 3-[3-(4-Methoxyphenyl)-5-methyl-7-oxo-furo[3,2-g]chromen-6-yl] propanoic acid]: in experiment [1] (30 μM, 1 h plus forskolin), the “effect on forskolin-induced redistribution of AQP2” value is given as “did not enhance the forskolin-induced redistribution”. Also, the F-actin result in experiment [1] (Scaff10-8 30 μM alone, forskolin alone) is recorded as “F-actin also decreased”. Moreover, the “localization of AQP2” value in experiment [1] (Scaff10-8 30 μM, 1 h, no forskolin, forskolin 10 μM, 30 min) was “caused the translocation of AQP2 to the plasma membrane”. Moreover, the “effect of forskolin on F-actin” value in experiment [1] (Scaff10-8 plus forskolin) is “did not influence”. In experiment [2], the “insertion of AQP2 into the plasma membrane” value was “does not promote the insertion of AQP2”. The RhoA activity result in experiment [3] (1 h) is “decreased RhoA activity”. Moreover, the “effect on RhoA inhibition by forskolin” value in experiment [3] (1 h plus forskolin 30 μM, 30 min) is “did not significantly enhance”.
